According to publication PMC5321753, “Enhanced expression of ADCY1 underlies aberrant neuronal signalling and behaviour in a syndromic autism model” (Nature Communications, 2017):

Columns and labels:
[1] = system: ADCY1; assay: ADCY1 protein (western blot) and Adcy1 mRNA (qRT-PCR) in cultured hippocampal neurons after DHPG; type: cell-based, mouse; conditions: DHPG 100 μM
Procedure: (§1) Primary hippocampal neurons were cultured as described, and used for the examination of mGluR1/5-mediated signalling and protein synthesis. Neurons were treated with 100 μM DHPG ((RS)-3,5-dihydroxyphenylglycine). Protein level and mRNA level were examined by western blot (for ADCY1, β-actin, p-ERK1/2 and ERK1/2) and quantitative RT-PCR (for Adcy1 and Gapdh mRNA), respectively.

[2] = system: ERK1/2; assay: ERK1/2 activation in cultured hippocampal neurons after DHPG; type: cell-based, mouse; conditions: both WT and Fmr1 KO neurons, DHPG 100 μM
Procedure: as §1

[3] = system: cAMP; set-up: method as in PMID 9844008; conditions: lower dose 0.03 mg kg^-1; cited from earlier work
[4] = system: fly model of FXS; set-up: method as in PMID 25568131; conditions: cited from earlier work
[5] = system: WT and Fmr1 KO mice; assay: Audiogenic seizures (AGS) induced by 120 dB sound; type: in vivo, mouse
Procedure: Audiogenic seizures (AGS) were examined with 21- to 24-day-old-mouse (7), as this phenotype is dependent on the age of the mouse and only detected in juvenile Frm1 KO mouse. Mouse was placed in a box (30 cm L × 17 cm W × 12 cm H) with a flat plastic lid. A personal alarm (Streetwise, item # SWPDAL) was taped to the lid of the box and wired to a DC power supply to keep the sound amplitude constant. The mouse was allowed to acclimatize to the box for 5 min, following which 120 dB sound was emitted from the alarm for 2 min. The number of mice undergoing seizure activity within the 2-min period was counted. Audiogenic seizures were classified into different stages: wild running, clonic/tonic seizure and death.
(§2) NB001 was dissolved in water to give a 25 mM stock solution. The stock was diluted in saline and IP injected into mice at 1 mg kg^−1 body weight. In all cases, the drug was administered 1 h before testing. Control mice were treated similarly but injected with saline.
(§3) To inhibit phosphodiesterase (PDE), rolipram was dissolved in 10% kolliphore and IP injected into mice at 0.5 or 0.03 mg kg^−1. The use of the higher dose (that is, 0.5 mg kg^−1) was to ensure sufficient inhibition of PDE[44][45]. […] Rolipram- or vehicle (10% kolliphore)-injected mice were examined with light/dark test and AGS 30 min after drug administration.

[6] = system: WT and Fmr1 KO mice; assay: Light/dark test; type: in vivo, mouse
Procedure: Light/dark test was examined as described in our previous study. Light/dark test was performed using 3-month (+/−10 days) old mouse, which was first placed in the dark half of the chamber (Coulbourn Instruments). After 1 min of habituation, the trap door was opened and the mouse was allowed to move freely between the two chambers for 5 min. The time spent in each chamber and the number of entries into the lit side were recorded.
as §2, §3

[7] = system: Fmr1 KO mice; set-up: method as in PMID 25568131; conditions: cited from earlier work
[8] = system: Fmr1 KO mice; set-up: method as in PMID 27445731; conditions: cited from earlier work
[9] = Fmr1 KO mice, rolipram 0.03 mg per kg, 30 min before 120 dB stimulation
[10] = Fmr1 KO mice, rolipram 0.5 mg kg^-1 IP, 30 min before testing, 120 dB
[11] = Fmr1 KO mice, rolipram at 0.5 or 0.03 mg kg^-1, systemic
[12] = WT mice, rolipram 0.03 mg per kg, 30 min before 120 dB stimulation
[13] = WT mice, rolipram 0.5 mg kg^-1 IP, 30 min before testing, 120 dB

NC(C(=O)O)c1cc(O)cc(O)c1 (racemic) [DHPG, (RS)-3,5-dihydroxyphenylglycine]
ADCY1 protein level in Fmr1 KO neurons ([1]; cultured Fmr1 KO hippocampal neurons): no DHPG-triggered increase
Adcy1 mRNA levels ([1]; cultured WT and Fmr1 KO hippocampal neurons): did not alter
ADCY1 protein level in WT neurons ([1]; cultured WT hippocampal neurons): up-regulation
downstream intracellular signalling target ERK1/2 [2]: activates

COc1ccc(C2CNC(=O)C2)cc1OC1CCCC1 (stereo not drawn) [rolipram]
cAMP changes [3]: not sufficient to cause cAMP changes
learning and memory in the fly model of FXS [4]: improved
% Clonic/tonic seizure [5, 9]: 35.7%
% Death [5, 9]: 14.3%
% Wild running [5, 9]: 50%
% Clonic/tonic seizure [5, 10]: 46.7%
% Death [5, 10]: 13.3%
% Wild running [5, 10]: 60%
AGS [5, 11]: did not correct
% Clonic/tonic seizure [5, 12]: 0%
% Death [5, 12]: 0%
% Wild running [5, 12]: 13.3%
% Clonic/tonic seizure [5, 13]: 0%
% Death [5, 13]: 0%
% Wild running [5, 13]: 25%
abnormal behaviour in light/dark test [6, 11]: did not correct
behavioral changes in light/dark test (treatment effect) ([6]; WT or Fmr1 KO mice, rolipram 0.03 mg per kg i.p., 30 min after injection): n.s.
behavioural changes in light/dark test (drug effect) ([6]; WT or Fmr1 KO mice, rolipram 0.5 mg kg^-1 i.p., 30 min after injection): does not cause significant behavioural changes
exaggerated mGluR1/5-mediated long-term synaptic depression phenotype [7]: rescued
signalling abnormalities in the hippocampus [8]: failed to correct
